Reference: the supplement of paper PMC10307832

Key:
Assay in all cases: relative viability (nuclei count vs DMSO), 5 days (fraction); higher = more cells survive
CPI-613 = compound: O=C(O)CCCCC(CCSCc1ccccc1)SCc1ccccc1 [CPI-613]
In short: (§1)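 A plate was accepted only when its control CV was below 25% and the cells had doubled at least once. Viability is defined from nuclear counts as treated wells divided by vehicle wells, with the median taken across plates. That median covers lung cancer cell lines grown in 1536-well plates, dosed by pinning at five √10-spaced library-drug concentrations, and counted in MetaXpress from 4× Hoechst images after 5 days.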

[1] = compound: Cc1cnc(-c2cnc(NCCNc3ccc(C#N)cn3)nc2-c2ccc(Cl)cc2Cl)[nH]1
In short: as §1

Cytarabine = compound: Nc1ccn([C@@H]2O[C@H](CO)[C@@H](O)[C@@H]2O)c(=O)n1 [Cytarabine]
In short: as §1

Docetaxel = compound: CC(=O)O[C@@]12CO[C@@H]1C[C@H](O)[C@@]1(C)C(=O)[C@H](O)C3=C(C)[C@@H](OC(=O)[C@H](O)[C@@H](NC(=O)OC(C)(C)C)c4ccccc4)C[C@@](O)([C@@H](OC(=O)c4ccccc4)[C@H]21)C3(C)C [Docetaxel]
In short: as §1

Tivozanib = compound: COc1cc2nccc(Oc3ccc(NC(=O)Nc4cc(C)on4)c(Cl)c3)c2cc1OC [Tivozanib]
In short: as §1

JQ1 = compound: Cc1sc2c(c1C)C(c1ccc(Cl)cc1)=N[C@@H](CC(=O)OC(C)(C)C)c1nnc(C)n1-2 [JQ1]
In short: as §1

Pimozide = compound: O=c1[nH]c2ccccc2n1C1CCN(CCCC(c2ccc(F)cc2)c2ccc(F)cc2)CC1 [Pimozide]
In short: as §1

Cell Line	relative viability (CPI-613; 5 µM)	relative viability (CPI-613; 15.81 µM)	relative viability (CPI-613; 50 µM)	relative viability (CPI-613; 158.11 µM)	relative viability (CPI-613; 500 µM)	relative viability ([1]; 0.08 µM)	relative viability ([1]; 0.253 µM)	relative viability ([1]; 0.8 µM)	relative viability ([1]; 2.53 µM)	relative viability (Cytarabine; 0.005 µM)	relative viability (Cytarabine; 0.01581 µM)	relative viability (Cytarabine; 0.05 µM)	relative viability (Cytarabine; 0.1581 µM)	relative viability (Cytarabine; 0.5 µM)	relative viability (Docetaxel; 0.0002 µM)	relative viability (Docetaxel; 0.000632 µM)	relative viability (Docetaxel; 0.002 µM)	relative viability (Docetaxel; 0.006325 µM)	relative viability (Docetaxel; 0.02 µM)	relative viability (Tivozanib; 0.005 µM)	relative viability (Tivozanib; 0.01581 µM)	relative viability (Tivozanib; 0.05 µM)	relative viability (Tivozanib; 0.1581 µM)	relative viability (Tivozanib; 0.5 µM)	relative viability (JQ1; 0.04 µM)	relative viability (JQ1; 0.1265 µM)	relative viability (JQ1; 0.4 µM)	relative viability (JQ1; 1.265 µM)	relative viability (JQ1; 4 µM)	relative viability (Pimozide; 0.08 µM)	relative viability (Pimozide; 0.253 µM)	relative viability (Pimozide; 0.8 µM)	relative viability (Pimozide; 2.53 µM)	relative viability (Pimozide; 8 µM)
NCI-H1299	1	0.984	1	0.992	0.973	0.968	1.01	1	0.969	1.01	1.04	1.01	1.06	1.02	0.998	0.975	0.868	0.502	0.37	1.01	1.03	1.03	1.02	0.952	0.974	0.851	0.909	0.379	0.308	1.02	0.951	0.977	0.995	0.988
NCI-H1355	0.963	0.95	0.949	0.735	0.0943	0.995	0.874	0.939	0.907	0.89	0.922	0.758	0.489	0.302	0.982	0.91	0.517	0.272	0.227	0.941	0.938	1.05	0.702	0.897	0.963	0.951	0.917	0.629	0.535	0.968	0.964	0.954	0.956	0.907
NCI-H1395	0.993	0.806	0.897	0.84	0.8	1.08	0.84	0.818	0.837	0.826	0.775	0.567	0.447	0.354	0.933	0.861	0.676	0.39	0.268	0.738	1.04	1	0.736	0.677	0.849	0.734	0.702	0.516	0.547	0.918	0.84	0.822	0.878	0.918
NCI-H1437	0.96	0.898	0.948	0.345	0.0955	1.02	0.928	0.98	1	0.79	0.64	0.494	0.243	0.206	0.914	0.765	0.457	0.281	0.158	0.968	0.971	0.988	0.982	0.88	0.92	0.792	0.762	0.484	0.415	0.991	0.969	0.959	0.904	0.723
NCI-H1563	1.05	0.957	0.996	0.531	0.307	1.03	0.999	0.934	1.09	0.936	0.974	0.971	0.835	0.771	0.881	0.974	1.08	0.744	0.593	0.958	1.05	0.975	0.95	1	0.898	0.785	0.778	0.648	0.661	0.952	1.03	0.93	0.869	0.867
NCI-H1623	1.07	0.99	1.13	0.743	0.867	1.06	0.957	0.921	0.947	0.828	0.592	0.41	0.25	0.216	0.889	0.957	0.601	0.424	0.264	1.05	0.986	1.03	0.714	0.986	0.961	0.82	0.908	0.557	0.54	0.675	0.916	0.902	0.939	0.932
NCI-H1648	0.818	0.768	1.11	0.393	0.577	1.11	0.801	0.951	0.76	0.69	0.734	0.813	0.443	0.611	0.861	0.925	0.494	0.269	0.179	0.838	0.918	1	0.886	0.716	0.89	0.753	0.434	0.294	0.184	1.01	0.641	0.822	0.8	0.972
NCI-H1650	0.877	0.776	0.942	0.137	0.0508	1	0.812	0.904	0.761	0.793	0.633	0.514	0.224	0.225	0.705	0.37	0.301	0.205	0.146	0.786	0.964	0.941	0.946	0.779	0.808	0.68	0.578	0.217	0.21	0.719	0.893	0.883	0.887	0.809
NCI-H1651	0.995	0.947	0.93	0.769	0.527	0.975	0.924	0.982	1.02	1.07	0.972	0.986	0.664	0.476	0.858	0.979	0.671	0.198	0.14	0.941	0.951	1.05	0.882	0.98	0.908	0.838	0.708	0.606	0.546	0.977	1	0.964	0.913	0.973
NCI-H1666	0.964	0.945	0.837	0.696	0.323	0.983	0.929	1.06	0.998	1	0.849	0.803	0.56	0.573	0.86	0.876	0.616	0.6	0.421	0.965	0.965	1.02	0.99	1.02	0.94	0.965	0.848	0.711	0.64	0.953	0.983	0.934	0.909	0.909
NCI-H1703	1.04	0.836	0.749	0.585	0.406	1.14	0.901	1.01	1.28	0.729	0.393	0.288	0.16	0.153	0.891	0.869	0.274	0.163	0.127	0.36	0.271	0.311	0.211	0.215	0.865	0.675	0.639	0.431	0.405	0.899	0.916	0.913	0.95	0.892
NCI-H1734	0.861	0.841	0.884	0.48	0.111	1.08	0.891	0.974	0.85	0.578	0.342	0.256	0.156	0.136	0.857	0.602	0.359	0.332	0.235	0.963	1.03	0.983	0.721	0.885	0.934	0.904	0.999	0.664	0.578	0.981	0.901	0.81	0.915	0.974
NCI-H1755	0.937	0.958	0.942	0.973	0.49	1.04	0.831	1.03	1.08	1.04	0.97	0.864	0.548	0.404	0.984	0.941	0.724	0.459	0.411	0.991	0.961	1.01	1.02	0.917	0.984	0.819	1.04	0.966	0.836	0.916	0.967	0.946	0.929	0.892
NCI-H1792	0.896	0.793	0.956	0.651	0.511	1.02	0.793	0.923	0.951		0.908	0.45	0.411	0.231	0.715	0.677	0.291	0.213	0.131	0.893	0.912	1.11	0.51	0.762	0.801	0.605	0.844	0.408	0.156	0.936	0.843	0.62	0.81	0.763
NCI-H1793	0.854	0.705	0.994	0.494	0.0301	1.07	0.879	0.876	1.02	0.958	0.884	0.818	0.691	0.521	1.01	0.852	0.351	0.285	0.186	0.84	0.787	0.952		0.977	0.802	0.785	0.674	0.778	0.78	0.746	0.846	0.675	0.947	0.711
NCI-H1915	1.01	0.996	0.97	0.949	0.0528	1.02		0.973	0.919	0.916	0.916	0.854	0.609	0.503	0.986	0.943	0.326	0.262	0.16	0.959	0.971	0.984	0.896	0.75	0.975	0.702	0.904	0.427	0.269	0.972	0.919	0.631	0.928	0.925
